Measurements from ChEMBL document CHEMBL3861942 (Medchemcomm, 2016).
Calls of active or inactive are those of the source. The rule behind the calls is not given here.

How the values were obtained:
[1] = (§1) Cytotoxicity against human A549 cells assessed as decrease in cell viability after 24 hrs by MTT assay; assay type: functional, cell-based; settings: A549, 24 h
[2] = (§2) Cytotoxicity against human HeLa cells assessed as decrease in cell viability after 24 hrs by MTT assay; assay type: functional, cell-based
[3] = Cell cycle arrest in human A549 cells assessed as accumulation at sub G0 phase at 10 uM by propidium iodide staining-based flow cytometric analysis (reference value: 0.866 +/- 0.03%); assay type: functional
[4] = Cell cycle arrest in human A549 cells assessed as accumulation at sub G0 phase at 100 uM by propidium iodide staining-based flow cytometric analysis (reference value: 0.866 +/- 0.03%); assay type: functional
A549 [5] = test: as §1; assay type: functional, cell-based
HeLa [6] = test: as §2; assay type: functional, cell-based
A549 [7] = test: Induction of apoptosis in human A549 cells assessed as appearance of crescent or granular shape nucleus on one side of the cell at 10 to 100 uM after 24 hrs by acridine orange/ethidium bromide staining-based fluorescence microscopy; assay type: functional
[8] = Cell cycle arrest in human A549 cells assessed as accumulation at S phase at 10 uM by propidium iodide staining-based flow cytometric analysis (reference value: 8.9 +/- 0.6%); assay type: functional
A549 [9] = test: Induction of apoptosis in human A549 cells assessed as appearance of concentrated and asymmetrically localized nucleus at 10 to 100 uM after 24 hrs by acridine orange/ethidium bromide staining-based fluorescence microscopy; assay type: functional, cell-based
HeLa [10] = test: Induction of apoptosis in human HeLa cells assessed as appearance of concentrated and asymmetrically localized nucleus at 10 to 100 uM after 24 hrs by acridine orange/ethidium bromide staining-based fluorescence microscopy; assay type: functional, cell-based
[11] = Cell cycle arrest in human A549 cells assessed as accumulation at G1 phase at 10 uM by propidium iodide staining-based flow cytometric analysis (reference value: 66.2 +/- 1.5%); assay type: functional
[12] = Cell cycle arrest in human A549 cells assessed as accumulation at G2/M phase at 10 uM by propidium iodide staining-based flow cytometric analysis (reference value: 23.5 +/- 1%); assay type: functional
[13] = Cell cycle arrest in human HeLa cells assessed as accumulation at sub G0 phase at 10 uM by propidium iodide staining-based flow cytometric analysis (reference value: 1.05 +/- 0.2%); assay type: functional
[14] = Cell cycle arrest in human HeLa cells assessed as accumulation at G1 phase at 10 uM by propidium iodide staining-based flow cytometric analysis (reference value: 42 +/- 1.8%); assay type: functional
[15] = Cell cycle arrest in human HeLa cells assessed as accumulation at S phase at 10 uM by propidium iodide staining-based flow cytometric analysis (reference value: 6.7 +/- 0.3%); assay type: functional
[16] = Cell cycle arrest in human HeLa cells assessed as accumulation at G2/M phase at 10 uM by propidium iodide staining-based flow cytometric analysis (reference value: 47.1 +/- 1.2%); assay type: functional
[17] = Cell cycle arrest in human A549 cells assessed as accumulation at G1 phase at 100 uM by propidium iodide staining-based flow cytometric analysis (reference value: 66.2 +/- 1.5%); assay type: functional
[18] = Cell cycle arrest in human A549 cells assessed as accumulation at S phase at 100 uM by propidium iodide staining-based flow cytometric analysis (reference value: 8.9 +/- 0.6%); assay type: functional
[19] = Cell cycle arrest in human A549 cells assessed as accumulation at G2/M phase at 100 uM by propidium iodide staining-based flow cytometric analysis (reference value: 23.5 +/- 1%); assay type: functional
[20] = Cell cycle arrest in human HeLa cells assessed as accumulation at sub G0 phase at 100 uM by propidium iodide staining-based flow cytometric analysis (reference value: 1.05 +/- 0.2%); assay type: functional
[21] = Cell cycle arrest in human HeLa cells assessed as accumulation at G1 phase at 100 uM by propidium iodide staining-based flow cytometric analysis (reference value: 42 +/- 1.8%); assay type: functional
[22] = Cell cycle arrest in human HeLa cells assessed as accumulation at S phase at 100 uM by propidium iodide staining-based flow cytometric analysis (reference value: 6.7 +/- 0.3%); assay type: functional
[23] = Cell cycle arrest in human HeLa cells assessed as accumulation at G2/M phase at 100 uM by propidium iodide staining-based flow cytometric analysis (reference value: 47.1 +/- 1.2%); assay type: functional

Structure (SMILES)	IC50 [1] [µM]	IC50 [2] [µM]	Activity [3] [%]	Activity [4] [%]	Activity (A549 [5])	Activity (HeLa [6])	Activity (A549 [7])	Activity [8] [%]	Activity (A549 [9])	Activity (HeLa [10])	Activity [11] [%]	Activity [12] [%]	Activity [13] [%]	Activity [14] [%]	Activity [15] [%]	Activity [16] [%]	Activity [17] [%]	Activity [18] [%]	Activity [19] [%]	Activity [20] [%]	further results
CC[C@]1(O)C[C@H]2CN(CCc3c([nH]c4ccccc34)[C@@](C(=O)OC)(c3cc4c(cc3OC)N(C=O)[C@H]3[C@@](O)(C(=O)OC)[C@H](OC(C)=O)[C@]5(CC)C=CCN6CC[C@]43[C@@H]65)C2)C1 [VINCRISTINE]	0.8	4.1																			
CC[C@H](/C=C/[C@@H](C)[C@H]1CC[C@H]2[C@@H]3CC=C4C[C@@H](O)CC[C@]4(C)[C@H]3CC[C@]12C)C(C)C [STIGMASTEROL]	10.4	12.2	0.85	0.9	Dose-dependent effect	Dose-dependent effect	Active	9.6	Active	Active	62.5	26.5	0.94	39	6.4	48.7	64.9	9.3	24.1	1.41	Activity [21]: 38%; Activity [22]: 7.1%; Activity [23]: 48.9%
O=C(O)/C=C/c1ccccc1 [CINNAMIC ACID]	50.2	24.8	0.54	0.48	Dose-dependent effect	Dose-dependent effect	Active	8.3	Active	Active	62.7	26.9	5.8	55.6	28.6	7.1	65.6	8.1	24.8	14.4	Activity [21]: 73.3%; Activity [22]: 14%; Activity [23]: 0.5%
